Test results: patent US20240335453A1, “METALLO-ß-LACTAMASE INHIBITORS” (University of KwaZulu-Natal, priority 2021, published 2024)
In brackets after ≈: the same amount, converted by molar mass. Several values for one entry are separate records, joined by “and”; a condition that tells them apart may be missing. Equal values may be shown once. Entries after “also recorded” stand apart in the source; their conditions may differ. Read-outs that look alike come from different tables or passages of the source.

Assays:
[1] = tested on: HepG2 cells; test: Cell viability (MTT) assay; type: cell-based, Human; details: for IC50: Homo sapiens, HepG2, 24 h; for HepG2 cell viability, effect in words: relative to control
Description: Human hepatoma (HepG2) cells were cultured in Dulbecco minimum essential medium (Lonza Biowhittaker, Switzerland) supplemented with 1% pen/strep/fungizone, 1% L-glutamine and 10% fetal bovine serum. The cells were maintained under the atmosphere of 5% CO2 at 37° C. Once 80% confluence had been reached, cells were enzymatically detached (trypsin) and utilized for the cell viability assay. The effect of MPR-SMN-05 on cell viability was determined using the 3-(4,5-Dimethyl-2-thiazolyl)-2,5-diphenyl-2H-tetrazolium bromide (MTT) assay according to previously reported studies by Mosmann (Mosmann T. Rapid colorimetric assay for cellular growth and survival: application to proliferation and cytotoxicity assays. Journal of immunological methods 1983; 65: 55-63). Approximately 15, 000 cells were seeded in a 96-well microtiter plate and allowed to adhere overnight. The cells were subsequently exposed to a range of 0 to 250 mg/L MPR-SMN-05 (experiments were done in triplicate). After incubation with MPR-SMN-05 for 24 h, cells were washed twice with 0.1 M phosphate buffer saline (PBS) and incubated with 20 μl MTT salt solution (5 mg/ml in 0.1 M PBS) and 100 μl complete culture medium (CCM) (37° C., 4 h). The MTT salt solution was then discarded and […] of DMSO was added to each well and incubated (37° C., 1 h) to dissolve the formazan crystals. The optical density was measured at 570/690 nm employing a spectrophotometer (Bio-Tek uQuant, Winooski, VT). The results were expressed as percentage cell viability vs. log concentration of MPR-SMN-05, from which the half maximal inhibitory concentration (IC50) was determined. Control treatments were represented by an equal amount of DMSO solvent in CCM without the test compound.

[2] = tested on: HepG2 cells; test: Lactate dehydrogenase (LDH) cytotoxicity assay; type: cell-based, Human; details: for Induction of necrosis / Extracellular lactate dehydrogenase (LDH) level: HepG2 cells; for Induction of necrosis: from LDH; for Extracellular lactate dehydrogenase (LDH) level: relative to control
Description: Human hepatoma (HepG2) cells were cultured in Dulbecco minimum essential medium (Lonza Biowhittaker, Switzerland) supplemented with 1% pen/strep/fungizone, 1% L-glutamine and 10% fetal bovine serum. The cells were maintained under the atmosphere of 5% CO2 at 37° C. Once 80% confluence had been reached, cells were enzymatically detached (trypsin) and utilized for the cell viability assay. The lactate dehydrogenase (LDH) cytotoxicity detection kit (Roche, Mannheim, Germany) was used to measure the cell damage and cytotoxicity in MPR-SMN-05-treated HepG2 cells. Extracellular LDH activity was quantified by incubating […] substrate solution (diaphorase/NAD+; INT/sodium lactate) in a 96 well microtiter plate at room temperature for 30 min. The assay was performed in triplicate. Optical density (OD) was measured following incubation at 500 nm using a spectrophotometric plate reader (Bio-Tek uQuant, Winooski, VT).

[3] = tested on: E. coli NDM-4; test: MIC broth microdilution checkerboard; type: cell-based; details: Escherichia coli
Description: (§1) Briefly, two-fold dilutions of each meropenem/BP or meropenem/TG from 0.015 to 16 μg/mL and 1 to 64 μg/mL respectively were made in cation adjusted Mueller-Hinton Broth (CAMHB) in a 96-well microtitre plate using the checkerboard method (King et al). A 0.5 McFarland-standardized bacterial inoculum was added to make a total volume of 100 μl in each microtitre well. The initial inoculum density was determined by plating out MHA plates for MBC testing. The plates were then incubated for 18-22 h at 37° C. under aerobic conditions. The MIC was determined as the lowest concentration at which there was no visible growth. Control wells included the amount of solvent used in dissolving drug candidates.
(§2) To investigate the potential activity of BP1 and TG1 as MBLs inhibitors well characterized carbapenem-resistant bacteria expressing known class B carbapenemases were used. MICs using the broth micro-dilution method was conducted according to CLSI guidelines (Clinical and Laboratory Standards Institute. Performance Standards for Antimicrobial Susceptibility Testing: Twenty-Fourth Informational Supplement M100-S24. CLSI, Wayne, PA, USA, 2014) using cation adjusted Mueller-Hinton broth for meropenem, alone (See table 4) and in combination with the metal chelating agents BP1 and TG1 at variable concentrations (two-fold dilutions from 1 to 64 μg/mL). Escherichia coli ATCC 25922 was used as the control.

[4] = tested on: E. cloacae IMP-8; test: MIC broth microdilution checkerboard; type: cell-based; details: Enterobacter cloacae
Description: as §1, §2

[5] = tested on: E. cloacae VIM-1; test: MIC broth microdilution checkerboard; type: cell-based; details: Enterobacter cloacae
Description: as §1, §2

[6] = tested on: K. pneumonia IMP-1; test: MIC broth microdilution checkerboard; type: cell-based; details: Klebsiella pneumoniae
Description: as §1, §2

[7] = tested on: P. rettgeri NDM-1; test: MIC broth microdilution checkerboard; type: cell-based; details: Providencia rettgeri
Description: as §1, §2

[8] = tested on: K. pneumoniae IMP-8; test: MIC broth microdilution checkerboard; type: cell-based; details: Klebsiella pneumoniae
Description: as §1, §2

[9] = tested on: E. coli IMP-1; test: MIC broth microdilution checkerboard; type: cell-based; details: Escherichia coli
Description: as §1, §2

[10] = tested on: K. pneumonia VIM-1; test: MIC broth microdilution checkerboard; type: cell-based; details: Klebsiella pneumoniae
Description: as §1, §2

[11] = tested on: E. coli NDM-1; test: Time-kill assay; type: cell-based; details: BP1 in combination with meropenem
Description: (§3) Time-kill studies were performed according to previously published methods, including those described by CLSI document M26-A. E. coli NDM-1, K. pneumoniae IMP-8 and K. pneumoniae NDM were the strains selected for this assay. Briefly, freshly prepared colonies were re-suspended in 10 mL CAMHB and incubated in a shaking incubator (37° C., 180 rpm) for 1 to 2 h. Cultures were then diluted to a 0.5 McFarland standard (approximately 10^8 CFU/mL) and further diluted 1:20 in CAMHB so that the starting inoculum was approximately 5×10^6 CFU/mL. […] A growth control with no antibiotic was also included. The starting inoculum was determined from the growth control tube immediately after dilution and was recorded as the count at time zero. After addition of antibiotics, the starting inoculum was approximately 1×10^6 to 5×10^6 CFU/mL. Tubes were incubated in a shaking incubator at 37° C., 180 rpm, and viability counts were performed at 1, 2, 4, 6, 8 and 24 h by removing 100 μL of the culture, diluting as appropriate, and plating 100 μL on MHA. MHA plates were incubated at 37° C. for at least 18 h. Colonies were counted, and the results were recorded as the number of CFU/mL. A ≥3−log10 decrease in the number of CFU/mL was considered bactericidal.

[12] = tested on: K. pneumoniae IMP-8; test: Time-kill assay; type: cell-based; details: BP1 in combination with meropenem
Description: as §3

[13] = tested on: E. coli NDM-1; test: MIC broth microdilution checkerboard; type: cell-based, Escherichia coli
Description: as §1, §2

[14] = tested on: Klebsiella pneumoniae 449; test: MIC broth microdilution checkerboard; type: cell-based; details: read-out: MIC, Meropenem administered alone
Description: as §1

C/C=C(/C(=O)N[C@@H]1C(=O)N2C(C(=O)O)=C(CSC(=O)c3ccco3)CS[C@H]12)c1csc(NC(=O)CC(C)N2CCN(CC)CCN(CC)CC2)n1 (stereo partly drawn) [BP6] was tested, and the IC50 [1] was 51.8 mg/L (≈ 68.2 µM), the “HepG2 cell viability, effect in words” value [1] was “dose dependent increase in the cell viability; also recorded: only significantly altered at 200 μg/ml” and the Induction of necrosis [2] was “does not induce necrosis”. For the same molecule, the “Extracellular lactate dehydrogenase (LDH) level” value [2] was “significantly reduced at all concentrations”.

CCN1CCN(CC)CCN(C(CC(=O)NC2C(=O)N3C(C(=O)[O-])=C(C[n+]4ccccc4)CSC23)C(=O)OC)CC1 (stereo not drawn) [BP1] was tested, and the MIC ([3]; NDM4, E. coli NDM-4, read-out: MIC BP1 alone) was > 64 µg/mL and > 84 µM, the MIC ([4]; IMP8, E. cloacae IMP-8, read-out: MIC BP1 alone) was > 64 µg/mL and > 84 µM and the MIC ([5]; VIM1, E. cloacae VIM-1, read-out: MIC BP1 alone) was > 64 µg/mL and > 84 µM. For the same molecule, the MIC ([6]; IMP1, K. pneumonia IMP-1, read-out: MIC BP1 alone) was > 64 µg/mL and > 84 µM, the MIC ([7]; NDM1, P. rettgeri NDM-1, read-out: MIC BP1 alone) was > 64 µg/mL and > 84 µM and the MIC ([8]; IMP8, K. pneumoniae IMP-8, read-out: MIC BP1 alone) was > 64 µg/mL and > 84 µM. For the same molecule, the MIC ([9]; IMP1, read-out: MIC BP1 alone) was > 64 µg/mL and > 84 µM, the MIC ([10]; VIM1, K. pneumonia VIM-1, read-out: MIC BP1 alone) was > 64 µg/mL and > 84 µM and the Time-kill kinetics outcome [11] was “bactericidal activity”. For the same molecule, the Time-kill kinetics outcome [12] was “bactericidal activity”, the IC50 [1] was 60 mg/L (≈ 102 µM) and the “HepG2 cell viability, effect in words” value [1] was “dose-dependent decrease in cell viability was observed with a significant decrease occurring at 100 and 200 μg/ml”. For the same molecule, the MIC ([13]; Escherichia coli, NDM1, E. coli NDM-1, read-out: MIC BP1 alone) was > 64 µg/mL and > 84 µM, the Induction of necrosis [2] was “does not induce necrosis” and the “Extracellular lactate dehydrogenase (LDH) level” value [2] was “significantly reduced at all concentrations”. For the same molecule, the “Cytotoxicity, overall statement” value ([2]; in vitro, cell lines) was “safe at the active concentrations”.

For CCN1CCN(CC)CCN(C(CC(=O)Nc2nc(/C(=C/CC(=O)O)C(=O)N[C@@H]3C(=O)N4C(C(=O)O)=CCS[C@H]34)cs2)C(=O)OC)CC1 (stereo partly drawn) [BP14], the IC50 [1] was 42.3 mg/L (≈ 59.8 µM), the “HepG2 cell viability, effect in words” value [1] was “reduced cell viability at 1 μg/ml and 10-200 μg/ml; also recorded: proliferation occurred at 8 μg/ml” and the Induction of necrosis [2] was “does not induce necrosis”. The “Extracellular lactate dehydrogenase (LDH) level” value [2] was “significantly reduced at 8 μg/ml; also recorded: remained unaffected at 1 μg/ml and 10-200 μg/ml”.

With C[C@@H](O)[C@H]1C(=O)N2C(C(=O)O)=C(S[C@@H]3CN[C@H](C(=O)N(C)C)C3)[C@H](C)[C@H]12 [Meropenem] the MIC [14] was over 32 mg/L, the MIC ([3]; NDM4, E. coli NDM-4, read-out: MIC MEM alone) was > 16 µg/mL and > 42 µM and the MIC ([4]; IMP8, E. cloacae IMP-8, read-out: MIC MEM alone) was 8 µg/mL and 21 µM. For the same molecule, the MIC ([5]; VIM1, E. cloacae VIM-1, read-out: MIC MEM alone) was 8 µg/mL and 21 µM, the MIC ([6]; IMP1, K. pneumonia IMP-1, read-out: MIC MEM alone) was > 16 µg/mL and > 42 µM and the MIC ([7]; NDM1, P. rettgeri NDM-1, read-out: MIC MEM alone) was > 16 µg/mL and > 42 µM. The MIC ([8]; IMP8, K. pneumoniae IMP-8, read-out: MIC MEM alone) was 8 µg/mL and 21 µM, the MIC ([9]; IMP1, read-out: MIC MEM alone) was 16 µg/mL and 42 µM and the MIC ([10]; VIM1, K. pneumonia VIM-1, read-out: MIC MEM alone) was > 16 µg/mL and > 42 µM. For the same molecule, the MIC ([13]; Escherichia coli, NDM1, E. coli NDM-1, read-out: MIC MEM alone) was > 16 µg/mL and > 42 µM and the MIC ([13]; NDM1, Escherichia coli NDM-1 (Table 6 footnote), read-out: MIC, Meropenem administered alone) was over 32 mg/L.

In the case of CCC1=C(C(=O)O)N2C(=O)[C@@H](NC(=O)/C(=N/C)c3csc(NC(=O)CC(C)N4CCN(CC)CCN(CC)CC4)n3)[C@H]2SC1 (stereo partly drawn) [BP10], the IC50 [1] is reported as 62 mg/L (≈ 95.5 µM), the “HepG2 cell viability, effect in words” value [1] is reported as “not significantly altered at 50-100 μg/ml; also recorded: significantly reduced at 200 μg/ml” and the Induction of necrosis [2] is reported as “does not induce necrosis”. For the same molecule, the “Extracellular lactate dehydrogenase (LDH) level” value [2] was “remained unaffected at 1 μg/ml; also recorded: significantly reduced at 8-200 μg/ml”.

O=C(O)CN1CCN(CC(=O)O)CCN(CC(=O)O)CC1 [TG1, 1,4,7-triazacyclononane-1,4,7-triacetic acid] was tested, and the MIC ([3]; NDM4, read-out: MIC TG1 alone) was > 64 µg/mL and > 131 µM, the MIC ([4]; IMP8, read-out: MIC TG1 alone) was > 64 µg/mL and > 131 µM and the MIC ([5]; VIM1, read-out: MIC TG1 alone) was > 64 µg/mL and > 131 µM. The MIC ([6]; IMP1, read-out: MIC TG1 alone) was > 64 µg/mL and > 131 µM, the MIC ([7]; NDM1, read-out: MIC TG1 alone) was > 64 µg/mL and > 131 µM and the MIC ([8]; IMP8, read-out: MIC TG1 alone) was > 64 µg/mL and > 131 µM. For the same molecule, the MIC ([9]; IMP1, read-out: MIC TG1 alone) was > 64 µg/mL and > 131 µM, the MIC ([10]; VIM1, read-out: MIC TG1 alone) was > 64 µg/mL and > 131 µM and the MIC ([13]; Escherichia coli, NDM1, read-out: MIC TG1 alone) was > 64 µg/mL and > 131 µM.
